# From PubChem BioAssay (NCI)
# “And” between values parts separate entries of the source, which are not always exact repeats. Equal values may be shown once.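 The compound was tested at five concentrations on cells cultured in 96-well plates, with a 48-hour exposure period. TGI: concentration producing complete growth inhibition.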
# Assays:
# Assay in all cases: inhibition of tumour cell growth, NCI panel, 48 h
# SNB-78 CNS = system: SNB-78 CNS
# OVCAR-3 ovarian = system: OVCAR-3 ovarian
# RXF 393 renal = system: RXF 393 renal
# EKVX NSCLC = system: EKVX NSCLC
# SN12C renal = system: SN12C renal
# OVCAR-5 ovarian = system: OVCAR-5 ovarian
# CAKI-1 renal = system: CAKI-1 renal
# A498 renal = system: A498 renal
# LOX IMVI melanoma = system: LOX IMVI melanoma
# SK-MEL-2 melanoma = system: SK-MEL-2 melanoma
# ACHN renal = system: ACHN renal
# MALME-3M melanoma = system: MALME-3M melanoma
# DLD-1 colon = system: DLD-1 colon
# SNB-19 CNS = system: SNB-19 CNS
# HOP-18 NSCLC = system: HOP-18 NSCLC
# HT29 colon = system: HT29 colon
# SK-MEL-28 melanoma = system: SK-MEL-28 melanoma
# SNB-75 CNS = system: SNB-75 CNS
# SW-620 colon = system: SW-620 colon
# HOP-92 NSCLC = system: HOP-92 NSCLC
# COLO 205 colon = system: COLO 205 colon
# HCT-116 colon = system: HCT-116 colon
# HOP-62 NSCLC = system: HOP-62 NSCLC
# SF-268 CNS = system: SF-268 CNS
# UACC-62 melanoma = system: UACC-62 melanoma
# NCI-H226 lung = system: NCI-H226 lung
# 786-0 renal = system: 786-0 renal
# XF 498 CNS = system: XF 498 CNS
# M19-MEL melanoma = system: M19-MEL melanoma
# U251 CNS = system: U251 CNS
# SF-539 CNS = system: SF-539 CNS
# TK-10 renal = system: TK-10 renal
# NCI-H23 lung = system: NCI-H23 lung
# IGROV1 ovarian = system: IGROV1 ovarian
# A549 NSCLC = system: A549 NSCLC
# UACC-257 melanoma = system: UACC-257 melanoma
# NCI-H460 lung = system: NCI-H460 lung
# KM12 colon = system: KM12 colon
# OVCAR-4 ovarian = system: OVCAR-4 ovarian
# SF-295 CNS = system: SF-295 CNS
# SK-MEL-5 melanoma = system: SK-MEL-5 melanoma
# OVCAR-8 ovarian = system: OVCAR-8 ovarian
# NCI-H522 lung = system: NCI-H522 lung
# UO-31 renal = system: UO-31 renal
# HCT-15 colon = system: HCT-15 colon
# K-562 leukemia = system: K-562 leukemia
# MOLT-4 leukemia = system: MOLT-4 leukemia
# LXFL 529 NSCLC = system: LXFL 529 NSCLC
# CCRF-CEM leukemia = system: CCRF-CEM leukemia
# DMS 273 small cell lung = system: DMS 273 small cell lung
# DMS 114 small cell lung = system: DMS 114 small cell lung
# RPMI-8226 leukemia = system: RPMI-8226 leukemia
# KM20L2 colon = system: KM20L2 colon
# HL-60(TB) leukemia = system: HL-60(TB) leukemia
# M14 melanoma = system: M14 melanoma
# HCC-2998 colon = system: HCC-2998 colon
# SK-OV-3 ovarian = system: SK-OV-3 ovarian
# SR leukemia = system: SR leukemia
compound,measurement,setting,value
CCCCCCCCCCCCCCC(C)CCC(=O)O (centres undefined),TGI,SNB-78 CNS,> 100 µM
same,TGI,OVCAR-3 ovarian,> 100 µM
same,TGI,RXF 393 renal,> 100 µM
same,TGI,EKVX NSCLC,> 100 µM
same,TGI,SN12C renal,> 100 µM
same,TGI,OVCAR-5 ovarian,> 100 µM
same,TGI,CAKI-1 renal,> 100 µM
same,TGI,A498 renal,> 100 µM
same,TGI,LOX IMVI melanoma,> 100 µM
same,TGI,SK-MEL-2 melanoma,> 100 µM
same,TGI,ACHN renal,> 100 µM
same,TGI,MALME-3M melanoma,> 100 µM
same,TGI,DLD-1 colon,> 100 µM
same,TGI,SNB-19 CNS,> 100 µM
same,TGI,HOP-18 NSCLC,> 100 µM
same,TGI,HT29 colon,> 100 µM
same,TGI,SK-MEL-28 melanoma,> 100 µM
same,TGI,SNB-75 CNS,> 100 µM
same,TGI,SW-620 colon,> 100 µM
same,TGI,HOP-92 NSCLC,> 100 µM
same,TGI,COLO 205 colon,> 100 µM
same,TGI,HCT-116 colon,> 100 µM
same,TGI,HOP-62 NSCLC,> 100 µM
same,TGI,SF-268 CNS,> 100 µM
same,TGI,UACC-62 melanoma,> 100 µM
same,TGI,NCI-H226 lung,> 100 µM
same,TGI,786-0 renal,> 100 µM
same,TGI,XF 498 CNS,> 100 µM
same,TGI,M19-MEL melanoma,> 100 µM
same,TGI,U251 CNS,> 100 µM
same,TGI,SF-539 CNS,> 100 µM
same,TGI,TK-10 renal,> 100 µM
same,TGI,NCI-H23 lung,> 100 µM
same,TGI,IGROV1 ovarian,> 100 µM
same,TGI,A549 NSCLC,> 100 µM
same,TGI,UACC-257 melanoma,> 100 µM
same,TGI,NCI-H460 lung,> 100 µM
same,TGI,KM12 colon,> 100 µM
same,TGI,OVCAR-4 ovarian,> 100 µM
same,TGI,SF-295 CNS,> 100 µM
same,TGI,SK-MEL-5 melanoma,> 100 µM
same,TGI,OVCAR-8 ovarian,> 100 µM
O=C(CC1=Nc2nnc(-c3nnc4n3C(=O)C(CC(=O)C3CC3)=N4)n2C1=O)C1CC1,TGI,SNB-78 CNS,> 100 µM
same,TGI,NCI-H522 lung,> 100 µM
same,TGI,OVCAR-3 ovarian,> 100 µM
same,TGI,RXF 393 renal,> 100 µM
same,TGI,UO-31 renal,> 100 µM
same,TGI,SN12C renal,> 100 µM
same,TGI,HCT-15 colon,> 100 µM
same,TGI,OVCAR-5 ovarian,> 100 µM
same,TGI,K-562 leukemia,> 100 µM
same,TGI,CAKI-1 renal,> 100 µM
same,TGI,MOLT-4 leukemia,> 100 µM
same,TGI,LXFL 529 NSCLC,> 100 µM
same,TGI,A498 renal,> 100 µM
same,TGI,CCRF-CEM leukemia,> 100 µM
same,TGI,LOX IMVI melanoma,> 100 µM
same,TGI,DMS 273 small cell lung,> 100 µM
same,TGI,DMS 114 small cell lung,> 100 µM
same,TGI,SK-MEL-2 melanoma,> 100 µM
same,TGI,RPMI-8226 leukemia,> 100 µM
same,TGI,ACHN renal,> 100 µM
same,TGI,MALME-3M melanoma,> 100 µM
same,TGI,DLD-1 colon,> 100 µM
same,TGI,SNB-19 CNS,> 100 µM
same,TGI,HT29 colon,> 100 µM
same,TGI,SK-MEL-28 melanoma,> 100 µM
same,TGI,SNB-75 CNS,> 100 µM
same,TGI,SW-620 colon,> 100 µM
same,TGI,HOP-92 NSCLC,> 100 µM
same,TGI,COLO 205 colon,> 100 µM
same,TGI,HCT-116 colon,> 100 µM
same,TGI,HOP-62 NSCLC,> 100 µM
same,TGI,SF-268 CNS,> 100 µM
same,TGI,UACC-62 melanoma,> 100 µM
same,TGI,NCI-H226 lung,> 100 µM
same,TGI,786-0 renal,> 100 µM
same,TGI,KM20L2 colon,> 100 µM
same,TGI,M19-MEL melanoma,> 100 µM
same,TGI,U251 CNS,> 100 µM
same,TGI,SF-539 CNS,> 100 µM
same,TGI,TK-10 renal,> 100 µM
same,TGI,NCI-H23 lung,> 100 µM
same,TGI,HL-60(TB) leukemia,> 100 µM
same,TGI,IGROV1 ovarian,> 100 µM
same,TGI,A549 NSCLC,> 100 µM
same,TGI,UACC-257 melanoma,> 100 µM
same,TGI,NCI-H460 lung,> 100 µM
same,TGI,KM12 colon,> 100 µM
same,TGI,OVCAR-4 ovarian,> 100 µM
same,TGI,SF-295 CNS,> 100 µM
same,TGI,M14 melanoma,> 100 µM
same,TGI,SK-MEL-5 melanoma,> 100 µM
same,TGI,HCC-2998 colon,> 100 µM
same,TGI,SK-OV-3 ovarian,> 100 µM
OCC(O)C(O)C(O)C(O)c1nn[nH]n1 (centres undefined),TGI,SNB-78 CNS,> 100 µM
same,TGI,NCI-H522 lung,> 100 µM
same,TGI,OVCAR-3 ovarian,> 100 µM
same,TGI,UO-31 renal,> 100 µM
same,TGI,EKVX NSCLC,> 100 µM
same,TGI,SN12C renal,> 100 µM
same,TGI,HCT-15 colon,> 100 µM
same,TGI,OVCAR-5 ovarian,> 100 µM
same,TGI,K-562 leukemia,> 100 µM
same,TGI,CAKI-1 renal,> 100 µM
same,TGI,MOLT-4 leukemia,> 100 µM
same,TGI,LXFL 529 NSCLC,> 100 µM
same,TGI,CCRF-CEM leukemia,> 100 µM
same,TGI,LOX IMVI melanoma,> 100 µM
same,TGI,DMS 273 small cell lung,> 100 µM
same,TGI,DMS 114 small cell lung,> 100 µM
same,TGI,SK-MEL-2 melanoma,> 100 µM
same,TGI,RPMI-8226 leukemia,> 100 µM
same,TGI,ACHN renal,> 100 µM
same,TGI,MALME-3M melanoma,> 100 µM
same,TGI,SR leukemia,> 100 µM
same,TGI,DLD-1 colon,> 100 µM
same,TGI,HT29 colon,> 100 µM
same,TGI,SNB-75 CNS,88.1 µM and > 100 µM
same,TGI,SW-620 colon,> 100 µM
same,TGI,HOP-92 NSCLC,> 100 µM
same,TGI,COLO 205 colon,> 100 µM
same,TGI,HCT-116 colon,> 100 µM
same,TGI,HOP-62 NSCLC,> 100 µM
same,TGI,SF-268 CNS,> 100 µM
same,TGI,UACC-62 melanoma,> 100 µM
same,TGI,NCI-H226 lung,> 100 µM
same,TGI,786-0 renal,> 100 µM
same,TGI,XF 498 CNS,> 100 µM
same,TGI,M19-MEL melanoma,> 100 µM
same,TGI,U251 CNS,> 100 µM
same,TGI,SF-539 CNS,> 100 µM
same,TGI,NCI-H23 lung,> 100 µM
same,TGI,HL-60(TB) leukemia,> 100 µM
same,TGI,IGROV1 ovarian,> 100 µM
same,TGI,A549 NSCLC,> 100 µM
same,TGI,NCI-H460 lung,> 100 µM
same,TGI,KM12 colon,> 100 µM
same,TGI,OVCAR-4 ovarian,> 100 µM
same,TGI,SF-295 CNS,> 100 µM
same,TGI,M14 melanoma,> 100 µM
same,TGI,SK-MEL-5 melanoma,> 100 µM
same,TGI,OVCAR-8 ovarian,> 100 µM
same,TGI,SK-OV-3 ovarian,> 100 µM
O=c1[nH]c2ccc([N+](=O)[O-])cc2nc1/C(=N/Nc1ccccc1)C(O)c1ccco1 (centres undefined),TGI,SNB-78 CNS,> 100 µM
same,TGI,NCI-H522 lung,96.5 µM
same,TGI,OVCAR-3 ovarian,> 100 µM
same,TGI,RXF 393 renal,> 100 µM
same,TGI,UO-31 renal,> 100 µM
same,TGI,EKVX NSCLC,> 100 µM
same,TGI,SN12C renal,> 100 µM
same,TGI,HCT-15 colon,63.5 µM
same,TGI,OVCAR-5 ovarian,> 100 µM
same,TGI,K-562 leukemia,> 100 µM
same,TGI,MOLT-4 leukemia,> 100 µM
same,TGI,LXFL 529 NSCLC,> 100 µM
same,TGI,CCRF-CEM leukemia,> 100 µM
same,TGI,LOX IMVI melanoma,> 100 µM
same,TGI,DMS 273 small cell lung,> 100 µM
same,TGI,DMS 114 small cell lung,> 100 µM
same,TGI,SK-MEL-2 melanoma,> 100 µM
same,TGI,RPMI-8226 leukemia,> 100 µM
same,TGI,ACHN renal,> 100 µM
same,TGI,MALME-3M melanoma,> 100 µM
same,TGI,SR leukemia,> 100 µM
same,TGI,DLD-1 colon,> 100 µM
same,TGI,SNB-19 CNS,> 100 µM
same,TGI,HT29 colon,> 100 µM
same,TGI,SK-MEL-28 melanoma,> 100 µM
same,TGI,SNB-75 CNS,> 100 µM
same,TGI,SW-620 colon,> 100 µM
same,TGI,HOP-92 NSCLC,> 100 µM
same,TGI,COLO 205 colon,> 100 µM
same,TGI,HCT-116 colon,> 100 µM
same,TGI,HOP-62 NSCLC,> 100 µM
same,TGI,SF-268 CNS,> 100 µM
same,TGI,UACC-62 melanoma,> 100 µM
same,TGI,NCI-H226 lung,> 100 µM
same,TGI,786-0 renal,> 100 µM
same,TGI,KM20L2 colon,> 100 µM
same,TGI,XF 498 CNS,> 100 µM
same,TGI,M19-MEL melanoma,> 100 µM
same,TGI,U251 CNS,> 100 µM
same,TGI,SF-539 CNS,> 100 µM
same,TGI,TK-10 renal,> 100 µM
same,TGI,NCI-H23 lung,> 100 µM
same,TGI,HL-60(TB) leukemia,> 100 µM
same,TGI,IGROV1 ovarian,> 100 µM
same,TGI,A549 NSCLC,> 100 µM
same,TGI,UACC-257 melanoma,> 100 µM
same,TGI,NCI-H460 lung,> 100 µM
same,TGI,KM12 colon,> 100 µM
same,TGI,OVCAR-4 ovarian,> 100 µM
same,TGI,SF-295 CNS,> 100 µM
same,TGI,M14 melanoma,> 100 µM
same,TGI,SK-MEL-5 melanoma,90.6 µM
same,TGI,OVCAR-8 ovarian,> 100 µM
same,TGI,HCC-2998 colon,> 100 µM
same,TGI,SK-OV-3 ovarian,> 100 µM
